Source: PubChem BioAssay (NCI)
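Five compound concentrations were applied to cells in 96-well plates for 48 hours; endpoints were derived by simple linear interpolation of the resulting dose-response curve. GI50 marks 50% less growth. TGI is the concentration that stops growth completely.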

Columns and labels:
Assay in all cases: NCI anticancer screen, dose series, 48 h
NCI-H460 lung = test system: NCI-H460 lung
IGROV1 ovarian = test system: IGROV1 ovarian
HOP-62 NSCLC = test system: HOP-62 NSCLC
SF-539 CNS = test system: SF-539 CNS
ACHN renal = test system: ACHN renal
SK-MEL-2 melanoma = test system: SK-MEL-2 melanoma
CCRF-CEM leukemia = test system: CCRF-CEM leukemia
SK-MEL-5 melanoma = test system: SK-MEL-5 melanoma
PC-3 prostate = test system: PC-3 prostate

Row | SMILES | TGI (NCI-H460 lung) | TGI (IGROV1 ovarian) | TGI (HOP-62 NSCLC) | TGI (SF-539 CNS) | TGI (ACHN renal) | TGI (SK-MEL-2 melanoma) | TGI (CCRF-CEM leukemia) | TGI (SK-MEL-5 melanoma) | TGI (PC-3 prostate) | GI50 (NCI-H460 lung) | GI50 (IGROV1 ovarian) | GI50 (HOP-62 NSCLC) | GI50 (SF-539 CNS) | GI50 (ACHN renal) | GI50 (SK-MEL-5 melanoma) | GI50 (SK-MEL-2 melanoma) | GI50 (CCRF-CEM leukemia) | GI50 (PC-3 prostate)
1 | CCNC(=O)C(O)C1(O)CCC2[C@@H]3CCC4=CC(=O)C=C[C@]4(C)C3[C@@H](O)C[C@@]21C (stereo partly specified) | > 100 µM | > 100 µM | > 100 µM | > 100 µM | > 100 µM | > 100 µM | > 100 µM |  |  |  |  |  |  |  |  |  |  | 
2 | COc1ccc2[nH]c3c(cnn4cnnc34)c2c1 | > 100 µM | > 100 µM | > 100 µM | > 100 µM | > 100 µM | > 100 µM | > 100 µM | > 100 µM |  |  |  |  |  |  |  |  |  | 
3 | CSC(=S)N(C)c1nc(=[N+](C)C)ss1 | > 100 µM | > 100 µM | > 100 µM | > 100 µM | > 100 µM | > 100 µM | > 100 µM | > 100 µM |  |  |  |  |  |  |  |  |  | 
4 | C/C(=N\NC(N)=S)c1ccc(/C(C)=N/NC(N)=S)cc1 | > 100 µM | > 100 µM | > 100 µM | > 100 µM | > 100 µM |  | > 100 µM | > 100 µM |  |  |  |  |  |  |  |  |  | 
5 | CCc1ccccc1NC(=O)CCc1nc(=S)[nH][nH]1 | > 100 µM | > 100 µM | > 100 µM | > 100 µM | > 100 µM | > 100 µM | > 100 µM | > 100 µM |  |  |  |  |  |  |  |  |  | 
6 | Cc1cccc(C(C)O)n1 (stereo unspecified) | > 100 µM | > 100 µM | > 100 µM | > 100 µM | > 100 µM | > 100 µM | > 100 µM | > 100 µM | > 100 µM |  |  |  |  |  |  |  |  | 
7 | COc1ccc(C2(CN(C)C)COc3cc(OC)c(OC)cc3C2=O)cc1OC (stereo unspecified) | > 100 µM | > 100 µM | > 100 µM | > 100 µM | > 100 µM |  | 58.1 µM | 60.7 µM |  |  |  |  |  |  |  |  |  | 
8 | COc1ccc2c(c1)[nH]c(=O)c1c3cccnc3cn21 | 2.06 µM | 14.6 µM | 37 µM | 2.39 µM | 13 µM | 11.3 µM | > 100 µM | 0.0992 µM |  | 0.0363 µM | 0.0627 µM | 0.0666 µM | 0.033 µM | 0.082 µM | 0.025 µM | 0.037 µM | 0.0437 µM | 0.0338 µM
9 | CN1C(c2ccccc2)CC(=Nc2ccccc2)CC1c1ccccc1 (stereo unspecified) | 33.9 µM | 38.4 µM | 34.6 µM |  |  |  | > 100 µM | 22.8 µM |  |  |  |  |  |  |  |  |  | 
10 | COC(=O)Nc1ccc2ccc3c(NC(=O)OC)ccc4ccc1c2c43 (tested in a mixture with another compound) | > 50 µM | > 50 µM | 25.4 µM | 17.8 µM | 15 µM | > 50 µM | > 50 µM | > 50 µM | 26 µM | 4.79 µM | 7.98 µM | 7.91 µM | 6.76 µM | 6.68 µM | 4.42 µM | 25.6 µM | 6.04 µM | 6.89 µM
11 | O=[N+]([O-])c1ccc(Cc2nc3ccccc3s2)cc1 | > 100 µM | > 100 µM | > 100 µM | 70.4 µM | > 100 µM | > 100 µM | > 100 µM | > 100 µM |  |  |  |  |  |  |  |  |  | 
12 | O=C(CC(=O)Nc1ccc(Cl)cc1)NNCC(=O)Nc1nc(-c2ccccc2)cs1 | > 100 µM | > 100 µM | > 100 µM | > 100 µM |  |  | > 100 µM | > 100 µM |  |  |  |  |  |  |  |  |  | 
13 | C/C(=N\NC(N)=S)c1ccc2c(c1)OCO2 | > 100 µM | > 100 µM | > 100 µM | > 100 µM | > 100 µM | > 100 µM | > 100 µM | > 100 µM |  |  |  |  |  |  |  |  |  | 
14 | N=C(c1ccccc1)N1CCCCC1 | > 100 µM |  | > 100 µM | > 100 µM |  | > 100 µM |  |  |  |  |  |  |  |  |  |  |  | 
15 | COC(=O)c1nc(-c2ccc(Cl)c(Cl)c2)nc2ccccc12 | > 100 µM | > 100 µM | 62.8 µM | > 61.3 µM | > 100 µM | > 100 µM | > 100 µM | > 100 µM |  |  |  |  |  |  |  |  |  | 
16 | C/C(=N\NC(=S)N(C)C)c1ncc[nH]1 | > 100 µM | 7.71 µM |  | 8.15 µM | 31.4 µM | 70.9 µM | 54.9 µM |  |  |  |  |  |  |  |  |  |  | 
17 | OCCN(CO)CN(CN(CO)CCO)c1nc(N(CN(CO)CCO)CN(CO)CCO)nc(N(CN(CO)CCO)CN(CO)CCO)n1 | 2.53 ng/mL | 5.46 ng/mL | 4.38 ng/mL | 3.91 ng/mL | 6.27 ng/mL |  | 2.52 ng/mL |  | 4.46 ng/mL | 1.17 ng/mL | 1.75 ng/mL | 1.47 ng/mL | 1.42 ng/mL | 1.73 ng/mL |  |  | 0.55 ng/mL | 1.48 ng/mL
18 | O=C1CCC(c2nc3ccccc3o2)C(=O)N1 (stereo unspecified) | > 100 µM | > 100 µM | > 100 µM | > 100 µM | > 100 µM | > 100 µM | > 100 µM | > 100 µM |  |  |  |  |  |  |  |  |  | 
